Reference: patent publication US10070660B2, “Pet food palatability with antimicrobial properties based on organic acids” (KEMIN INDUSTRIES, INC., priority 2012, dated 2018)
Entries after “also recorded” stand apart in the source; their conditions may differ.

What was measured:
[1] = tested on: Salmonella (five Salmonella enterica serovars); test: Cat kibble challenge with dried five strain Salmonella cocktail inoculum; type: cell-based
Experimental: One ml of each Salmonella culture was separately inoculated into a beaker containing tempered (ambient), sterilized MBM which was then incubated at 37° C. for 48 hours. Inoculated MBM was dispensed (approx. 200 g) into sterile 250 ml centrifuge bottles and centrifuged at 5,000 rpm for 10 minutes. The supernatant was decanted and autoclaved for disposal. The pellets were suspended in 10 ml TSB-20% glycerol. Suspensions (approximately 150-160 g) were transferred to sterilized 250 ml polycarbonate straight side wide mouth jars with lids (Nalgene, Thermo Scientific). Jars containing MBM-Salmonella suspensions were immediately frozen at −70° C. for 1 hour. Frozen MBM-Salmonella suspensions were lyophilized using a FreeZone-1 Liter benchtop freeze dry system (Labconco) (approx. 96 hours, −50° C.). Each lyophilized Salmonella culture was pulverized to a fine powder using a sterile mortar and pestle. Twenty g of each of the five lyophilized Salmonella cultures was combined in a sterile wide mouth glass jar to make the dried Salmonella cocktail inoculum. […] Solidified plates were incubated inverted at 37° C. for 16-18 hours. Visible colonies were counted and colony forming units per gram were calculated (CFU/g). […] Kibble and inoculum were mixed together for five minutes by hand in a plastic zip top bag, and allowed to rest for 1 hour prior to sampling. Coated, un-inoculated kibble was also included in the study and tested for Salmonella (direct plating and FDA BAM), total aerobic bacteria, mold and yeast counts, pH, percent moisture, and water activity. For each analysis time point challenged kibble was sampled in triplicate. Kibbles were stored at ambient temperature.
Challenged kibble samples bags were mixed thoroughly, then 5.00 g (±0.01) was aseptically weighed into a sterile plastic bag and diluted with 45 ml sterile Phosphate Buffer (Butterfield) diluent (BPB) containing (g/l) KH2PO4 34.0, pH adjusted to 7.2 with 1N sodium hydroxide and homogenized using a Stomacher (Seward Stomacher 80) for 1 minute and serially diluted in BPB for plating. The plates are poured with tempered (45° C.) XLD agar. After solidification, plates were inverted and placed in an incubator (37° C.). Colonies were counted and CFU/g was calculated. The counts for each triplicate sample were averaged and expressed as log CFU/g. Those samples of which were below the detection limit of <10 CFU/g were assigned 0 log CFU/g for the purpose of statistical analysis. Analysis of Variance using the LSD separation of means method was performed to analyze the data using StatGraphics software (StatPoint Technologies, Inc. Warrenton, Va.).
All procedures for the Phase 3 kibble challenge were conducted as described for Phase 2.

[2] = tested on: cats; test: Cat palatability, two-pan method (intake ratio); type: in vivo; conditions: for IR-A: Ration B incumbent; for IR: vs name brand cat food
[3] = tested on: Salmonella enterica subsp. enterica (ATCC 51741); test: Microplate assay, inhibition of S. enterica growth in modified TSB (OD600 over 48 h); type: cell-based; conditions: microtiter plate, 0.025-0.100% in TSB, 37 C
Experimental: FIG. 1 is a chart of the effect of fumaric acid (0%; 0.025%; 0.050%; 0.100%) on the growth of Salmonella enterica ser. Infantis in modified tryptic soy broth (pH 4.93) for 48 hours at 37° C.
Salmonella enterica subsp. enterica (ATCC® 51741™), was obtained from the American Type Culture Collection (ATCC®) and kept as a frozen stock at −70° C. in Bacto™ Tryptic Soy Broth (TSB) with 20% (w/v) glycerol. One vial of the frozen stock culture was thawed at room temperature and 0.100 mL was transferred to 100 mL TSB (pH 7.2) containing (g/l) pancreatic digest of casein: 17, enzymatic digest of soybean meal: 3, sodium chloride, 5, dipotassium phosphate: 2.5, dextrose, 2.5, then incubated at 37° C. for 24 hours on a platform shaker set at 190 rpm. […]
A 0.20% stock solution of fumaric acid was made by dissolving 0.100 g (w/v) fumaric acid in 50 ml sterile deionized water in a flask. […] The pH of each fumaric-TSB solution was measured (Table 1). […] The microplate was placed in a Versamax Microplate Reader (Molecular Devices) (37° C.) with wavelength set to 600 nm. The optical density (OD600) was read every 2 hours for 48 hours.
Solutions of fumaric acid at three different concentrations (Table 3) were evaluated for inhibition of S. enterica growth in vitro using a microplate assay and measuring optical density over time (FIG. 1).

O=C(O)/C=C/C(=O)O [Fumaric Acid, fumaric acid]
Salmonella ([1]; Table 4, 0.21% on cat kibble, day 0): 2.79 ± 0.35^Aa log CFU/g
Salmonella ([1]; Table 4, 0.21% on cat kibble, day 1): 2.85 ± 0.07^Aa log CFU/g
Salmonella ([1]; Table 4, 0.21% on cat kibble, day 8): 2.02 ± 0.13^Bab log CFU/g
Salmonella ([1]; Table 4, 0.21% on cat kibble, day 14): 1.44 ± 0.24^Bbc log CFU/g
Salmonella ([1]; Table 4, 0.21% on cat kibble, day 22): 0.77 ± 0.39^Bc log CFU/g
Salmonella ([1]; Table 5, 0.30% on cat kibble, day 0): 2.44 ± 0.21^Aa log CFU/g
Salmonella ([1]; Table 5, 0.30% on cat kibble, day 1): 1.26 ± 0.14^Bab log CFU/g
Salmonella ([1]; Table 5, 0.30% on cat kibble, day 5): 0.57 ± 0.57^Bb log CFU/g
Salmonella ([1]; Table 5, 0.41% on cat kibble, day 0): 1.46 ± 0.09^Ba log CFU/g
Salmonella ([1]; Table 5, 0.41% on cat kibble, day 1, below detection limit assigned 0): 0.0 ± 0.0^Cb* log CFU/g
Salmonella ([1]; Table 5, 0.41% on cat kibble, day 5, below detection limit assigned 0): 0.0 ± 0.0^Bb* log CFU/g
Salmonella ([1]; Table 12, 0.50% total acid on cat kibble, day 0): 3.38 ± 0.02^Ba log CFU/g
Salmonella ([1]; Table 12, 0.50% total acid on cat kibble, day 1): 1.98 ± 0.02^Bb log CFU/g
Salmonella ([1]; Table 12, 0.50% total acid on cat kibble, day 5): 1.10 ± 0.10^Bc log CFU/g
Salmonella ([1]; Table 12, 0.50% total acid on cat kibble, day 7): 0.33 ± 0.33^Bd log CFU/g
Salmonella ([1]; Table 12, 0.50% total acid on cat kibble, day 14): 0.33 ± 0.33^Bd log CFU/g
Salmonella ([1]; Table 12, 0.50% total acid on cat kibble, day 21): 0.00 ± 0.00^Bd log CFU/g
Salmonella counts on challenged cat kibble vs control palatant (in words) ([1]; cat kibble challenge): significant efficacy against Salmonella spp; also recorded: significantly lower Salmonella counts; also recorded: demonstrated antimicrobial activity; also recorded: significant reduction in Salmonella count; also recorded: dose response
Salmonella counts ([1]; highest level of fumaric acid on cat kibble, after 1 day, detection limit): < 10 CFU/g
IR-A ([2]; Confirmation trials, Prototype 89-87, 0.25% acid on kibble (so in the source)): 0.65 (p ≤ 0.05)
palatability (in words) ([2]; Example 4 cat trials, formula 89-87 or 89-145 vs incumbent dry palatant): parity palatability score; also recorded: scores improved
IR-A ([2]; First set, Prototype 89-87 at 2.5%, 0.5% total acid on kibble): 0.46 (N.S.)
IR ([2]; Trial 412 (so in the source), 20% fumaric acid in formula (80 mesh), 0.30% on kibble): 0.77
IR ([2]; Trial 426, 14% fumaric acid in formula (30 mesh sieve), 0.21% on kibble): 0.57
IR ([2]; Trial 465, 14% fumaric acid in formula (80 mesh sieve), 0.21% on kibble): 0.62
IR ([2]; Trial 481, 27% fumaric acid in formula (80 mesh), ~0.41% on kibble): 0.74
inhibition of S. enterica growth in vitro (in words) [3]: effective antimicrobial agent
